Experimental data taken from ChEMBL document CHEMBL1201861, “Genomics of Drug Sensitity in Cancer screening data, Wellcome Trust Sanger Institute”.

These compounds were tested on KP-N-YN (assay: cells). Details: Homo sapiens.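 Also: growth inhibition of KP-N-YN cells, read out with a cell viability assay.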
Format: functional, cell-based
Description: SANGER: Inhibition of human KP-N-YN cell growth in a cell viability assay.
Work on O=C(NCCCNc1nc(Nc2cccc(NC(=O)N3CCCC3)c2)ncc1I)c1cccs1 [BX-795] yielded an IC50 greater than 5 µM.

Each compound was assayed on NB17 (assay: cells). Details: Homo sapiens, NB17.
Format: functional, cell-based, Homo sapiens
Description: SANGER: Inhibition of human NB17 cell growth in a cell viability assay.
Compound O=C(NCCCNc1nc(Nc2cccc(NC(=O)N3CCCC3)c2)ncc1I)c1cccs1 [BX-795] has an IC50 greater than 5 µM.

These compounds were tested on NCI-H2228 (assay: cells). Details: Homo sapiens.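 Also: growth inhibition of human NCI-H2228 cells, read out by a cell viability assay.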
Format: functional, cell-based
Description: SANGER: Inhibition of human NCI-H2228 cell growth in a cell viability assay.
O=C(NCCCNc1nc(Nc2cccc(NC(=O)N3CCCC3)c2)ncc1I)c1cccs1 [BX-795] gave an IC50 greater than 5 µM.

The compounds below were run on CAKI-1 (assay: cells). Details: Homo sapiens.
Format: functional, cell-based
Description: SANGER: Inhibition of human CAKI-1 cell growth in a cell viability assay.
In the case of O=C(NCCCNc1nc(Nc2cccc(NC(=O)N3CCCC3)c2)ncc1I)c1cccs1 [BX-795], the IC50 is reported as 2.28 µM.

These compounds were tested on SK-MES-1 (assay: cells). Details: Homo sapiens.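 Also: growth inhibition of human SK-MES-1 cells, read out with a cell viability assay.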
Format: functional, cell-based
Description: SANGER: Inhibition of human SK-MES-1 cell growth in a cell viability assay.
Compound O=C(NCCCNc1nc(Nc2cccc(NC(=O)N3CCCC3)c2)ncc1I)c1cccs1 [BX-795] has an IC50 of 2.96 µM.

What follows are compounds tested on TYK-nu (assay: cells). Details: Homo sapiens.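 Also: growth inhibition of human TYK-nu cells, read out by a cell viability assay.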
Format: functional, cell-based
Description: SANGER: Inhibition of human TYK-nu cell growth in a cell viability assay.
For O=C(NCCCNc1nc(Nc2cccc(NC(=O)N3CCCC3)c2)ncc1I)c1cccs1 [BX-795], the IC50 was 2.93 µM.

What follows are compounds tested on HCC38 (assay: cells). Details: Homo sapiens.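 Also: cell viability assay on the human HCC38 cell line, with IC50 marking the concentration that inhibits cell growth.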
Format: functional, cell-based
Description: SANGER: Inhibition of human HCC38 cell growth in a cell viability assay.
O=C(NCCCNc1nc(Nc2cccc(NC(=O)N3CCCC3)c2)ncc1I)c1cccs1 [BX-795] showed an IC50 greater than 5 µM.

What follows are compounds tested on T98G (assay: cells). Details: Homo sapiens.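 Also: growth inhibition of T98G cells, read out by a cell viability assay.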
Format: functional, cell-based
Description: SANGER: Inhibition of human T98G cell growth in a cell viability assay.
With O=C(NCCCNc1nc(Nc2cccc(NC(=O)N3CCCC3)c2)ncc1I)c1cccs1 [BX-795] the IC50 was 2.39 µM.

The compounds below were run on LK-2 (assay: cells). Details: Homo sapiens.
Format: functional, cell-based
Description: SANGER: Inhibition of human LK-2 cell growth in a cell viability assay.
With O=C(NCCCNc1nc(Nc2cccc(NC(=O)N3CCCC3)c2)ncc1I)c1cccs1 [BX-795] the IC50 was greater than 5 µM.

These compounds were tested on Daoy (assay: cells). Details: Homo sapiens.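 Also: daoy cell growth inhibition, read out as cell viability.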
Format: functional, cell-based
Description: SANGER: Inhibition of human Daoy cell growth in a cell viability assay.
Work on O=C(NCCCNc1nc(Nc2cccc(NC(=O)N3CCCC3)c2)ncc1I)c1cccs1 [BX-795] yielded an IC50 greater than 5 µM.

These compounds were tested on T84 (assay: cells). Details: Homo sapiens.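 Also: growth inhibition measured with a cell viability readout.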
Format: functional, cell-based
Description: SANGER: Inhibition of human T84 cell growth in a cell viability assay.
For O=C(NCCCNc1nc(Nc2cccc(NC(=O)N3CCCC3)c2)ncc1I)c1cccs1 [BX-795], the IC50 was greater than 5 µM.

These compounds were tested on BFTC-909 (assay: cells). Details: Homo sapiens.
Format: functional, cell-based
Description: SANGER: Inhibition of human BFTC-909 cell growth in a cell viability assay.
O=C(NCCCNc1nc(Nc2cccc(NC(=O)N3CCCC3)c2)ncc1I)c1cccs1 [BX-795] was tested, and the IC50 was 4.65 µM.

The compounds below were run on ACHN (assay: cells). Details: Homo sapiens.
Format: functional, cell-based
Description: SANGER: Inhibition of human ACHN cell growth in a cell viability assay.
Work on O=C(NCCCNc1nc(Nc2cccc(NC(=O)N3CCCC3)c2)ncc1I)c1cccs1 [BX-795] yielded an IC50 greater than 5 µM.

Each compound was assayed on NCI-H2052 (assay: cells). Details: Homo sapiens.
Format: functional, cell-based
Description: SANGER: Inhibition of human NCI-H2052 cell growth in a cell viability assay.
Compound O=C(NCCCNc1nc(Nc2cccc(NC(=O)N3CCCC3)c2)ncc1I)c1cccs1 [BX-795] has an IC50 greater than 5 µM.

The compounds below were run on PFSK-1 (assay: cells). Details: Homo sapiens.
Format: functional, cell-based
Description: SANGER: Inhibition of human PFSK-1 cell growth in a cell viability assay.
O=C(NCCCNc1nc(Nc2cccc(NC(=O)N3CCCC3)c2)ncc1I)c1cccs1 [BX-795] showed an IC50 greater than 5 µM.

What follows are compounds tested on HT-3 (assay: cells). Details: Homo sapiens.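 Also: growth inhibition measured with a cell viability readout.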
Format: functional, cell-based
Description: SANGER: Inhibition of human HT-3 cell growth in a cell viability assay.
O=C(NCCCNc1nc(Nc2cccc(NC(=O)N3CCCC3)c2)ncc1I)c1cccs1 [BX-795] showed an IC50 greater than 5 µM.

What follows are compounds tested on CaR-1 (assay: cells). Details: Homo sapiens.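 Also: growth inhibition of human CaR-1 cancer cells, read out with a cell viability assay.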
Format: functional, cell-based
Description: SANGER: Inhibition of human CaR-1 cell growth in a cell viability assay.
O=C(NCCCNc1nc(Nc2cccc(NC(=O)N3CCCC3)c2)ncc1I)c1cccs1 [BX-795] was tested, and the IC50 was greater than 5 µM.

The compounds below were run on HCC1806 (assay: cells). Details: Homo sapiens.
Format: functional, cell-based
Description: SANGER: Inhibition of human HCC1806 cell growth in a cell viability assay.
With O=C(NCCCNc1nc(Nc2cccc(NC(=O)N3CCCC3)c2)ncc1I)c1cccs1 [BX-795] the IC50 was greater than 5 µM.

The compounds below were run on SCC-4 (assay: cells). Details: Homo sapiens.
Format: functional, cell-based
Description: SANGER: Inhibition of human SCC-4 cell growth in a cell viability assay.
Work on O=C(NCCCNc1nc(Nc2cccc(NC(=O)N3CCCC3)c2)ncc1I)c1cccs1 [BX-795] yielded an IC50 greater than 5 µM.

What follows are compounds tested on A2058 (assay: cells). Details: Homo sapiens.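 Also: reduction of A2058 cell growth, read out with a viability assay.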
Format: functional, cell-based
Description: SANGER: Inhibition of human A2058 cell growth in a cell viability assay.
O=C(NCCCNc1nc(Nc2cccc(NC(=O)N3CCCC3)c2)ncc1I)c1cccs1 [BX-795] showed an IC50 of 2.98 µM.

These compounds were tested on HOS (assay: cells). Details: Homo sapiens.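 Also: growth inhibition of human HOS cells, read out with a cell viability assay.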
Format: functional, cell-based
Description: SANGER: Inhibition of human HOS cell growth in a cell viability assay.
Work on O=C(NCCCNc1nc(Nc2cccc(NC(=O)N3CCCC3)c2)ncc1I)c1cccs1 [BX-795] yielded an IC50 of 1.57 µM.

Each compound was assayed on M059J (assay: cells). Details: Homo sapiens.
Format: functional, cell-based
Description: SANGER: Inhibition of human M059J cell growth in a cell viability assay.
Compound O=C(NCCCNc1nc(Nc2cccc(NC(=O)N3CCCC3)c2)ncc1I)c1cccs1 [BX-795] has an IC50 of 1.38 µM.

The compounds below were run on KU-19-19 (assay: cells). Details: Homo sapiens.
Format: functional, cell-based
Description: SANGER: Inhibition of human KU-19-19 cell growth in a cell viability assay.
O=C(NCCCNc1nc(Nc2cccc(NC(=O)N3CCCC3)c2)ncc1I)c1cccs1 [BX-795] showed an IC50 greater than 5 µM.

These compounds were tested on MDA-MB-453 (assay: cells). Details: Homo sapiens.
Format: functional, cell-based
Description: SANGER: Inhibition of human MDA-MB-453 cell growth in a cell viability assay.
With O=C(NCCCNc1nc(Nc2cccc(NC(=O)N3CCCC3)c2)ncc1I)c1cccs1 [BX-795] the IC50 was greater than 5 µM.

These compounds were tested on Capan-2 (assay: cells). Details: Homo sapiens.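 Also: Capan-2 cell growth inhibition, read out with a viability assay.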
Format: functional, cell-based
Description: SANGER: Inhibition of human Capan-2 cell growth in a cell viability assay.
Compound O=C(NCCCNc1nc(Nc2cccc(NC(=O)N3CCCC3)c2)ncc1I)c1cccs1 [BX-795] has an IC50 greater than 5 µM.

Each compound was assayed on BHY (assay: cells). Details: Homo sapiens.
Format: functional, cell-based
Description: SANGER: Inhibition of human BHY cell growth in a cell viability assay.
Compound O=C(NCCCNc1nc(Nc2cccc(NC(=O)N3CCCC3)c2)ncc1I)c1cccs1 [BX-795] has an IC50 greater than 5 µM.

What follows are compounds tested on KYSE-70 cell line (assay: cells). Details: Homo sapiens.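 Also: cell viability assay read-out, with IC50 expressing suppression of KYSE-70 cell growth.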
Format: functional, cell-based
Description: SANGER: Inhibition of human KYSE-70 cell growth in a cell viability assay.
O=C(NCCCNc1nc(Nc2cccc(NC(=O)N3CCCC3)c2)ncc1I)c1cccs1 [BX-795] showed an IC50 greater than 5 µM.

These compounds were tested on NCI-H2170 (assay: cells). Details: Homo sapiens.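 Also: cell viability assay measuring growth inhibition of human NCI-H2170 cancer cells.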
Format: functional, cell-based
Description: SANGER: Inhibition of human NCI-H2170 cell growth in a cell viability assay.
With O=C(NCCCNc1nc(Nc2cccc(NC(=O)N3CCCC3)c2)ncc1I)c1cccs1 [BX-795] the IC50 was greater than 5 µM.

Each compound was assayed on NB7 (assay: cells). Details: Homo sapiens, NB7.
Format: functional, cell-based, Homo sapiens
Description: SANGER: Inhibition of human NB7 cell growth in a cell viability assay.
O=C(NCCCNc1nc(Nc2cccc(NC(=O)N3CCCC3)c2)ncc1I)c1cccs1 [BX-795] was tested, and the IC50 was greater than 5 µM.

These compounds were tested on HCC70 (assay: cells). Details: Homo sapiens.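 Also: cell viability assay measuring how strongly the compound suppresses proliferation of HCC70 cells.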
Format: functional, cell-based
Description: SANGER: Inhibition of human HCC70 cell growth in a cell viability assay.
O=C(NCCCNc1nc(Nc2cccc(NC(=O)N3CCCC3)c2)ncc1I)c1cccs1 [BX-795] gave an IC50 greater than 5 µM.

These compounds were tested on RT-112 (assay: cells). Details: Homo sapiens.
Format: functional, cell-based
Description: SANGER: Inhibition of human RT-112 cell growth in a cell viability assay.
O=C(NCCCNc1nc(Nc2cccc(NC(=O)N3CCCC3)c2)ncc1I)c1cccs1 [BX-795] gave an IC50 of 4.01 µM.

These compounds were tested on Ca9-22 (assay: cells). Details: Homo sapiens.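 Also: growth inhibition of Ca9-22 cells, read out with a cell viability assay.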
Format: functional, cell-based
Description: SANGER: Inhibition of human Ca9-22 cell growth in a cell viability assay.
O=C(NCCCNc1nc(Nc2cccc(NC(=O)N3CCCC3)c2)ncc1I)c1cccs1 [BX-795] gave an IC50 of 2.13 µM.

These compounds were tested on SW1417 (assay: cells). Details: Homo sapiens.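 Also: growth inhibition of human SW1417 cells, read out with a cell viability assay.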
Format: functional, cell-based
Description: SANGER: Inhibition of human SW1417 cell growth in a cell viability assay.
With O=C(NCCCNc1nc(Nc2cccc(NC(=O)N3CCCC3)c2)ncc1I)c1cccs1 [BX-795] the IC50 was greater than 5 µM.

Each compound was assayed on HEC-1 (assay: cells). Details: Homo sapiens.
Format: functional, cell-based
Description: SANGER: Inhibition of human HEC-1 cell growth in a cell viability assay.
For O=C(NCCCNc1nc(Nc2cccc(NC(=O)N3CCCC3)c2)ncc1I)c1cccs1 [BX-795], the IC50 was 4.09 µM.

The compounds below were run on HT-1376 (assay: cells). Details: Homo sapiens.
Format: functional, cell-based
Description: SANGER: Inhibition of human HT-1376 cell growth in a cell viability assay.
In the case of O=C(NCCCNc1nc(Nc2cccc(NC(=O)N3CCCC3)c2)ncc1I)c1cccs1 [BX-795], the IC50 is reported as greater than 5 µM.

The compounds below were run on H4 (assay: cells). Details: Homo sapiens.
Format: functional, cell-based
Description: SANGER: Inhibition of human H4 cell growth in a cell viability assay.
O=C(NCCCNc1nc(Nc2cccc(NC(=O)N3CCCC3)c2)ncc1I)c1cccs1 [BX-795] showed an IC50 of 1.1 µM.

What follows are compounds tested on HOP-92 (assay: cells). Details: Homo sapiens.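 Also: cell viability readout, with IC50 reflecting inhibition of HOP-92 cell growth.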
Format: functional, cell-based
Description: SANGER: Inhibition of human HOP-92 cell growth in a cell viability assay.
O=C(NCCCNc1nc(Nc2cccc(NC(=O)N3CCCC3)c2)ncc1I)c1cccs1 [BX-795] was tested, and the IC50 was 1.27 µM.

Each compound was assayed on HuO-3N1 (assay: cells). Details: Homo sapiens.
Format: functional, cell-based
Description: SANGER: Inhibition of human HuO-3N1 cell growth in a cell viability assay.
O=C(NCCCNc1nc(Nc2cccc(NC(=O)N3CCCC3)c2)ncc1I)c1cccs1 [BX-795] was tested, and the IC50 was 2.6 µM.

What follows are compounds tested on PC-3 (assay: cells). Details: Homo sapiens.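 Also: cell viability assay measuring growth inhibition of PC-3 cells.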
Format: functional, cell-based
Description: SANGER: Inhibition of human PC-3 cell growth in a cell viability assay.
Work on O=C(NCCCNc1nc(Nc2cccc(NC(=O)N3CCCC3)c2)ncc1I)c1cccs1 [BX-795] yielded an IC50 of 4.17 µM.
